From publication PMC8452096 (bioRxiv, 2021)

Assays:
[1] = Plasma pharmacokinetics after oral administration in uninfected BALB/c mice; type: in vivo
SARS-CoV-2 nLUC = assay: microbe, parasite or virus in culture; type: cell-based; conditions: Severe acute respiratory syndrome coronavirus 2
[2] = molar basis, compared with RDV; cited from earlier work
WT SARS-CoV-2 = type: cell-based
SARS-CoV-2 Fluc = assay: microbe, parasite or virus in culture; type: cell-based; conditions: Severe acute respiratory syndrome coronavirus 2, NHBE, in Homo sapiens, 24 h

| Structure (SMILES) | maximal plasma concentrations (Cmax) and exposures (AUC0–24h) ([1]; GS-441524 after single oral GS-621763, 5 vs 20 mg/kg) | EC50 (SARS-CoV-2 nLUC) | efficiency at generating lung triphosphate, less than RDV [2] | infectious virus production / viral titers (WT SARS-CoV-2) | EC50 (SARS-CoV-2 Fluc) | NHC plasma exposures ([1]; after oral MPV 30 mg/kg or 100 mg/kg BID, BALB/c mice) |
| --- | --- | --- | --- | --- | --- | --- |
| N#C[C@@]1(c2ccc3c(N)ncnn23)O[C@H](CO)[C@@H](O)[C@H]1O [GS-441524] | Dose proportional increases | 3.3 µM | at least 10 fold | significant and dose-dependent reduction in viral titers | 2.45 µM |  |
| CCC(CC)COC(=O)[C@H](C)N[P@](=O)(OC[C@H]1O[C@@](C#N)(c2ccc3c(N)ncnn23)[C@H](O)[C@@H]1O)Oc1ccccc1 [RDV, remdesivir] |  | 0.28 µM |  | significant and dose-dependent reduction in viral titers | 0.0371 µM |  |
| O=c1nc(NO)ccn1[C@@H]1O[C@H](CO)[C@@H](O)[C@H]1O [NHC, β-D-N4-hydroxycytidine] |  |  |  |  |  | dose proportional increases |
